In brackets after ≈: the same amount, converted by molar mass.
Columns and labels:
Type in all cases: functional
Conditions in all cases: time 16-24 hrs
[1] = test system: Staphylococcus aureus; assay: Antibacterial activity against methicillin-susceptible Staphylococcus aureus incubated for 16 to 24 hrs by CLSI based broth microdilution method
[2] = test system: Staphylococcus aureus; assay: Antibacterial activity against vancomycin-intermediate Staphylococcus aureus incubated for 16 to 24 hrs by CLSI based broth microdilution method
[3] = test system: Enterococcus faecium; assay: Antibacterial activity against vancomycin-resistant Enterococcus faecium harboring VanA phenotype incubated for 16 to 24 hrs by CLSI based broth microdilution method
[4] = test system: Enterococcus faecium; assay: Antibacterial activity against vancomycin-resistant Enterococcus faecium harboring VanM phenotype incubated for 16 to 24 hrs by CLSI based broth microdilution method
[5] = test system: Enterococcus faecium; assay: Antibacterial activity against vancomycin-resistant Enterococcus faecium harboring VanB phenotype incubated for 16 to 24 hrs by CLSI based broth microdilution method
[6] = test system: Escherichia coli; assay: Antibacterial activity against Escherichia coli AB1157 incubated for 16 to 24 hrs by CLSI based broth microdilution method
[7] = test system: Acinetobacter baumannii; assay: Antibacterial activity against Carbapenem-resistant Acinetobacter baumannii clinical isolate incubated for 16 to 24 hrs by CLSI based broth microdilution method
[8] = test system: Klebsiella pneumoniae; assay: Antibacterial activity against Klebsiella pneumoniae clinical isolate incubated for 16 to 24 hrs by CLSI based broth microdilution method
[9] = test system: Pseudomonas aeruginosa; assay: Antibacterial activity against Pseudomonas aeruginosa PAO1 incubated for 16 to 24 hrs by CLSI based broth microdilution method

SMILES	MIC [1] [µg/mL]	MIC [2] [µg/mL]	MIC [3] [µg/mL]	MIC [4] [µg/mL]	MIC [5] [µg/mL]	MIC [6] [µg/mL]	MIC [7] [µg/mL]	MIC [8] [µg/mL]	MIC [9] [µg/mL]
CC(C)C[C@@H](N)C(=O)N[C@H]1C(=O)N[C@@H](CC(N)=O)C(=O)N[C@H]2C(=O)N[C@H]3C(=O)N[C@H](C(=O)N[C@H](C(=O)N[C@H](CCCNC(=N)N)C(N)=O)c4cc(O)cc(O)c4-c4cc3ccc4O)[C@H](O)c3ccc(c(Cl)c3)Oc3cc2cc(c3O[C@@H]2O[C@H](CO)[C@@H](O)[C@H](O)[C@H]2O[C@H]2C[C@](C)(N)[C@H](O)[C@H](C)O2)Oc2ccc(cc2Cl)[C@H]1O	0.5 (≈ 0.314 µM)	16 (≈ 10.1 µM)	32 (≈ 20.1 µM)	64 (≈ 40.2 µM)	32 (≈ 20.1 µM)	16 (≈ 10.1 µM)	64 (≈ 40.2 µM)	> 128	128 (≈ 80.5 µM)
CN[C@H](CC(C)C)C(=O)N[C@H]1C(=O)N[C@@H](CC(N)=O)C(=O)N[C@H]2C(=O)N[C@H]3C(=O)N[C@H](C(=O)N[C@H](C(=O)O)c4cc(O)cc(O)c4-c4cc3ccc4O)[C@H](O)c3ccc(c(Cl)c3)Oc3cc2cc(c3O[C@@H]2O[C@H](CO)[C@@H](O)[C@H](O)[C@H]2O[C@H]2C[C@](C)(NCc3ccc(-c4ccc(CCN)cc4)cc3)[C@H](O)[C@H](C)O2)Oc2ccc(cc2Cl)[C@H]1O	0.25 (≈ 0.151 µM)	2 (≈ 1.21 µM)	16 (≈ 9.65 µM)		8 (≈ 4.82 µM)	64 (≈ 38.6 µM)	64 (≈ 38.6 µM)	> 128	
CC(C)C[C@@H](N)C(=O)N[C@H]1C(=O)N[C@@H](CC(N)=O)C(=O)N[C@H]2C(=O)N[C@H]3C(=O)N[C@H](C(=O)N[C@H](C(=O)NCc4ccc(CN)cc4)c4cc(O)cc(O)c4-c4cc3ccc4O)[C@H](O)c3ccc(c(Cl)c3)Oc3cc2cc(c3O[C@@H]2O[C@H](CO)[C@@H](O)[C@H](O)[C@H]2O[C@H]2C[C@](C)(N)[C@H](O)[C@H](C)O2)Oc2ccc(cc2Cl)[C@H]1O	1 (≈ 0.644 µM)	1 (≈ 0.644 µM)	128 (≈ 82.4 µM)	64 (≈ 41.2 µM)	64 (≈ 41.2 µM)	16 (≈ 10.3 µM)	64 (≈ 41.2 µM)		
CC(C)C[C@H](C(=O)N[C@H]1C(=O)N[C@@H](CC(N)=O)C(=O)N[C@H]2C(=O)N[C@H]3C(=O)N[C@H](C(=O)N[C@H](C(=O)O)c4cc(O)cc(O)c4-c4cc3ccc4O)[C@H](O)c3ccc(c(Cl)c3)Oc3cc2cc(c3O[C@@H]2O[C@H](CO)[C@@H](O)[C@H](O)[C@H]2O[C@H]2C[C@](C)(N)[C@H](O)[C@H](C)O2)Oc2ccc(cc2Cl)[C@H]1O)N(C)Cc1ccc(-c2ccc(CN)cc2)cc1	1 (≈ 0.608 µM)	8 (≈ 4.86 µM)	64 (≈ 38.9 µM)	64 (≈ 38.9 µM)	64 (≈ 38.9 µM)	> 128	> 128	> 128	
CN[C@H](CC(C)C)C(=O)N[C@H]1C(=O)N[C@@H](CC(N)=O)C(=O)N[C@H]2C(=O)N[C@H]3C(=O)N[C@H](C(=O)N[C@H](C(=O)NCCc4ccc(-c5ccc(CN)cc5)cc4)c4cc(O)cc(O)c4-c4cc3ccc4O)[C@H](O)c3ccc(c(Cl)c3)Oc3cc2cc(c3O[C@@H]2O[C@H](CO)[C@@H](O)[C@H](O)[C@H]2O[C@H]2C[C@](C)(N)[C@H](O)[C@H](C)O2)Oc2ccc(cc2Cl)[C@H]1O	0.25 (≈ 0.151 µM)	1 (≈ 0.603 µM)	8 (≈ 4.83 µM)		8 (≈ 4.83 µM)	16 (≈ 9.65 µM)	32 (≈ 19.3 µM)	> 128	
CC(C)C[C@H](C(=O)N[C@H]1C(=O)N[C@@H](CC(N)=O)C(=O)N[C@H]2C(=O)N[C@H]3C(=O)N[C@H](C(=O)N[C@H](C(=O)O)c4cc(O)cc(O)c4-c4cc3ccc4O)[C@H](O)c3ccc(c(Cl)c3)Oc3cc2cc(c3O[C@@H]2O[C@H](CO)[C@@H](O)[C@H](O)[C@H]2O[C@H]2C[C@](C)(N)[C@H](O)[C@H](C)O2)Oc2ccc(cc2Cl)[C@H]1O)N(C)Cc1ccc(-c2ccc(CNC(=N)N)cc2)cc1	1 (≈ 0.593 µM)	4 (≈ 2.37 µM)	32 (≈ 19 µM)	32 (≈ 19 µM)	32 (≈ 19 µM)	> 128	> 128	> 128	
CN[C@H](CC(C)C)C(=O)N[C@H]1C(=O)N[C@@H](CC(N)=O)C(=O)N[C@H]2C(=O)N[C@H]3C(=O)N[C@H](C(=O)N[C@H](C(=O)NCc4ccc(-c5ccc(CCN)cc5)cc4)c4cc(O)cc(O)c4-c4cc3ccc4O)[C@H](O)c3ccc(c(Cl)c3)Oc3cc2cc(c3O[C@@H]2O[C@H](CO)[C@@H](O)[C@H](O)[C@H]2O[C@H]2C[C@](C)(N)[C@H](O)[C@H](C)O2)Oc2ccc(cc2Cl)[C@H]1O	1 (≈ 0.603 µM)	1 (≈ 0.603 µM)	8 (≈ 4.83 µM)	8 (≈ 4.83 µM)	4 (≈ 2.41 µM)	16 (≈ 9.65 µM)	32 (≈ 19.3 µM)	> 128	
